Results: US20180290977A1, “KDM4 INHIBITORS” (Albert-Ludwigs-University Freiburg, priority 2017, published 2018)
Like-named read-outs stand apart in the source and are kept apart here.

Molecular target: T1, KDM4C (Homo sapiens, UniProt Q9H3R0)
T1 sequence (Q9H3R0 1-1056): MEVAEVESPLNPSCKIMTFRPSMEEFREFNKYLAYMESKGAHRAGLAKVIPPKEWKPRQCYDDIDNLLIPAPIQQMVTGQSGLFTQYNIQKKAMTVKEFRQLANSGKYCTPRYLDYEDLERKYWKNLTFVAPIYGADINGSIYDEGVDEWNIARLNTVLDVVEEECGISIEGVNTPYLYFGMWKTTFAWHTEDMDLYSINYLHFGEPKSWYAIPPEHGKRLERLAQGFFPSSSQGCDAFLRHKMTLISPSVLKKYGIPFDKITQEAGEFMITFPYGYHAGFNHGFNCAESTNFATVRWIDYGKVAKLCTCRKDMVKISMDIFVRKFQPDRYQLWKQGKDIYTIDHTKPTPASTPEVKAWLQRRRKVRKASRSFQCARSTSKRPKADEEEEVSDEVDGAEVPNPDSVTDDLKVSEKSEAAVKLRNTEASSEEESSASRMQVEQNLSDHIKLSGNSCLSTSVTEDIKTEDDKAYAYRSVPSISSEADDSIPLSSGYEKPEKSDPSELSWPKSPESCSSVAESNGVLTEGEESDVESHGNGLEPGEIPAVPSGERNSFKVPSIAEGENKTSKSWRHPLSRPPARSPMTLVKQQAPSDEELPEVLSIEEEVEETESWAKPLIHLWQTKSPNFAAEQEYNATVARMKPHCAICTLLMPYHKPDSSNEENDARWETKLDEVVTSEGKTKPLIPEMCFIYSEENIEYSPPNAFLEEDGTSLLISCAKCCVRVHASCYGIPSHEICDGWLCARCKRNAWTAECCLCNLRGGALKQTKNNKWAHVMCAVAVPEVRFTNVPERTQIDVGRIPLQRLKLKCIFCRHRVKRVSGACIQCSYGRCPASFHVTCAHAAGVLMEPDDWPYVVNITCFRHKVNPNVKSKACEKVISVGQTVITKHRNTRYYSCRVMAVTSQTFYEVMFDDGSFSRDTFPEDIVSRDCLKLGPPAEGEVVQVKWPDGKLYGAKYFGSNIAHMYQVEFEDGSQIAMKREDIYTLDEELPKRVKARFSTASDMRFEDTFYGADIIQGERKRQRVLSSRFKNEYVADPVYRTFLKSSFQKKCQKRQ
Test: KDM demethylase inhibition (IC50)
Type: biochemical

Work on CN(c1ccccc1)c1ccc2c(c1)CCC[C@H]2CNc1cnccc1C(=O)O [Compound I, 3-({[(1R)-6-[methyl(phenyl)amino]-1,2,3,4-tetrahydronaphthalen-1-yl]methyl}amino)pyridine-4-carboxylic Acid] yielded an IC50 (read-out: Compound I IC50) of 35 nM and an IC50 (read-out: IC50, demethylase activity) of under 105 nM.
